Assay results: patent US8492555B2, “Salts of isobutyric acid (1 R*, 2R*, 4R*)-2-(2-{[3-(4,7-dimethoxy-1 H-benzoimidazol-2-yl)-methyl-amino}-ethyl)-5-phenyl-bicyclo[2.2.2]oct-5-en-2-yl ester” (Actelion Pharmaceuticals Ltd., priority 2008, dated 2013)
pEC50, pIC50: −log10 of the molar value.

Legend:
[1] = Hygroscopicity by scanned gravimetric vapour sorption; type: physicochemical; conditions: upwards scan; for Hygroscopicity classification: European Pharmacopea Technical Guide (1999), 40% to 80% relative humidity; for Hygroscopicity mass change: between 40% and 80% relative humidity
Excerpt: The mass change between 40% relative humidity and 80% relative humidity in the upwards scan was considered.

human Cav1.2 channel = molecular target: T1, human Cav1.2 channel (Homo sapiens, UniProt Q13936); assay: In vitro assay L channel (FLIPR, KCl-induced calcium fluorescence); type: cell-based; conditions: HEK293 cells expressing human Cav1.2 with β-2a and α2δ-1; 20 mM KCl; read-out: L channel antagonistic activity IC50
T1 construct: expressed in transfected cells; host or cells: HEK293
Method: The L channel antagonistic activity (IC50 values) of Reference Examples 1A, 2A, and 3A is determined in accordance with the following experimental method.
Human embryonic kidney (HEK293) cells expressing the human Cav1.2 channel in addition to the auxiliary subunits β-2a and α2δ-1, are grown in culture medium (DMEM containing 10% heat-inactivated fetal calf serum (FCS), 100 U/ml penicillin, 100 μg/ml streptomycin, 100 μg/ml G418, 40 μg/ml zeocin and 100 μg/ml hygromycin). The cells are seeded at 20.000 cells/well into 384-well black clear bottom sterile plates (poly-L-lysine-coated, Becton Dickinson). The seeded plates are incubated overnight at 37° C. in 5% CO2. The KCl solution is prepared as 80 mM stock solution in assay buffer (HBSS containing 0.1% BSA, 20 mM HEPES, 0.375 g/l NaHCO3, adjusted to pH 7.4 with NaOH) for use in the assay at a final concentration of 20 mM. Antagonists are prepared as 10 mM stock solutions in DMSO, then diluted in 384 w plates first in DMSO, then in assay buffer to obtain 3× stocks. On the day of the assay, 25 μl of staining buffer (HBSS containing 20 mM HEPES, 0.375 g/l NaHCO3, and 3 μM of the fluorescent calcium indicator fluo-4 AM (1 mM stock solution in DMSO, containing 10% pluronic) is added to each well of the seeded plate. The 384-well cell-plates are incubated for 60 min at 37° C. in 5% CO2 followed by washing with 2×50 μl per well using assay buffer leaving 50 μl/well of this buffer for equilibration at room temperature (30-60 min). Within the Fluorescent Imaging Plate Reader (FLIPR, Molecular Devices), antagonists are added to the plate in a volume of 25 μl/well, incubated for 3 min and finally 25 μl/well of KCl solution is added for cellular depolarization. Fluorescence is measured for each well at 2 second intervals for 8 minutes, and the area under the curve of each fluorescence peak is compared to the area of the fluorescence peak induced by 20 mM KCl with vehicle in place of antagonist. […]

isolated mouse hearts = assay: Effect on isolated hearts according to the Langendorff method; conditions: read-out: EC50 Langendorff experiment
Method: Effect on Isolated Hearts According to the Langendorff Method (Lgdff)
The Reference Examples 1A, 2A, and 3A were tested for their potential to reduce blood pressure and their effect on the contractility of the heart muscle. EC50 values on isolated mouse hearts were determined according to Literature (Doring H J., The isolated perfused heart according to Langendorff technique—function—application, Physiol. Bohemoslov. 1990, 39(6), 481-504; Kligfield P, Homer H, Brachfeld N., A model of graded ischemia in the isolated perfused rat heart, J. Appl. Physiol. 1976 June, 40(6), 1004-8).

T1 sequence (Q13936 whole entry): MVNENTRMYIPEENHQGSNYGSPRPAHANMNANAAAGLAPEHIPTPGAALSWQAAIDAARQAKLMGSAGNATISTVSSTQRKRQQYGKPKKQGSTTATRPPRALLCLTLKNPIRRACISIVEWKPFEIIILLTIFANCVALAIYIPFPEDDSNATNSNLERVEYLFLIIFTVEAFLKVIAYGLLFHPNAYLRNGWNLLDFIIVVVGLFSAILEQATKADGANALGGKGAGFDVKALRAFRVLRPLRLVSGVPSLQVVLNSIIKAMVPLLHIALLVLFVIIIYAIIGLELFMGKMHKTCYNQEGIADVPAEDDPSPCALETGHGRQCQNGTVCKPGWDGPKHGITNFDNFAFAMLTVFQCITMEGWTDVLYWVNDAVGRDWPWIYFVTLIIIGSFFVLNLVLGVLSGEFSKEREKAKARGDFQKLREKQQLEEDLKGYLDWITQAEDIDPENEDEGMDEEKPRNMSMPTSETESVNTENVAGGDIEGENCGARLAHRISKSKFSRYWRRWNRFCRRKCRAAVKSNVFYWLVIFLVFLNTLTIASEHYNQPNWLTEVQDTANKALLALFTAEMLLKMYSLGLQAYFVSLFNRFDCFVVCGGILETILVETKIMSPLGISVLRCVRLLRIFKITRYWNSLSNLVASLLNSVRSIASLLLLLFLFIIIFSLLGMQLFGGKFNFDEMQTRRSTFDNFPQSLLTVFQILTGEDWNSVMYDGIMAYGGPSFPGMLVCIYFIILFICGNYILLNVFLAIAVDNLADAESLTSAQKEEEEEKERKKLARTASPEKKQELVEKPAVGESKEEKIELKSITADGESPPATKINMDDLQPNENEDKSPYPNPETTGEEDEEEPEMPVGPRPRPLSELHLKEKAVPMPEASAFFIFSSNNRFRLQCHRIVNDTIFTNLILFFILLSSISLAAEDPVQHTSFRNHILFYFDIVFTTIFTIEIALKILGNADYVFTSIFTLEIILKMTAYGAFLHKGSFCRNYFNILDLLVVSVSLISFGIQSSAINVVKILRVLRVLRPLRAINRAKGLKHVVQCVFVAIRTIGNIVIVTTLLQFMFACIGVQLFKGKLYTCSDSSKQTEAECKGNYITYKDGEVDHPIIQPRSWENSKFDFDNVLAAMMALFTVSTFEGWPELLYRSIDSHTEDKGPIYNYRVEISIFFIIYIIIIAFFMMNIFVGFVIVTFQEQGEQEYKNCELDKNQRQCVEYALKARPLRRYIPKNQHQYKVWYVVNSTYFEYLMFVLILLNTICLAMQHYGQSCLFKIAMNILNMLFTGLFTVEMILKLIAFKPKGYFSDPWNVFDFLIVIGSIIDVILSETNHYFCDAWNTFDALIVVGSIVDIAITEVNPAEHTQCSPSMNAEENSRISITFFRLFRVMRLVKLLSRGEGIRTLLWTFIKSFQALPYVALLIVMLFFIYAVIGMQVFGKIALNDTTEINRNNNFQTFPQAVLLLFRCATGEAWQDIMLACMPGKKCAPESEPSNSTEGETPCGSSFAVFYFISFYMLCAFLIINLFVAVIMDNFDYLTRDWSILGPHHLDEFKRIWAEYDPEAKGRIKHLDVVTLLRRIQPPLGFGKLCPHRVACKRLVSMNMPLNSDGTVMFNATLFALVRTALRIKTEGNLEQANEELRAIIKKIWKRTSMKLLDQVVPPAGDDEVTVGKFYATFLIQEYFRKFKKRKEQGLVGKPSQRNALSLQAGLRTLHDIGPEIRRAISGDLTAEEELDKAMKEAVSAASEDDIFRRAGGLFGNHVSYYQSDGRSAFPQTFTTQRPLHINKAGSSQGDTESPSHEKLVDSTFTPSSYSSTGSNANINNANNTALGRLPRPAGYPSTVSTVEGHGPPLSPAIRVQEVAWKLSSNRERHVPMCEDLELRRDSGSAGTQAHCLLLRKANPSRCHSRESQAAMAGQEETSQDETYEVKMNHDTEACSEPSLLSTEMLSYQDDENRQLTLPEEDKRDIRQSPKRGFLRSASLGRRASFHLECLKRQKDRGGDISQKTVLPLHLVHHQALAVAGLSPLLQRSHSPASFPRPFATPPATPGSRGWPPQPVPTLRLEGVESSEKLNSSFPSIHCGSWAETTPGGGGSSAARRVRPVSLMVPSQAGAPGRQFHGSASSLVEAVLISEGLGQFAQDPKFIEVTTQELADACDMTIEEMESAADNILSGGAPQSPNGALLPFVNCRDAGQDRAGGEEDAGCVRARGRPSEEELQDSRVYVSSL
T1 sequence (Q08289 whole entry partner): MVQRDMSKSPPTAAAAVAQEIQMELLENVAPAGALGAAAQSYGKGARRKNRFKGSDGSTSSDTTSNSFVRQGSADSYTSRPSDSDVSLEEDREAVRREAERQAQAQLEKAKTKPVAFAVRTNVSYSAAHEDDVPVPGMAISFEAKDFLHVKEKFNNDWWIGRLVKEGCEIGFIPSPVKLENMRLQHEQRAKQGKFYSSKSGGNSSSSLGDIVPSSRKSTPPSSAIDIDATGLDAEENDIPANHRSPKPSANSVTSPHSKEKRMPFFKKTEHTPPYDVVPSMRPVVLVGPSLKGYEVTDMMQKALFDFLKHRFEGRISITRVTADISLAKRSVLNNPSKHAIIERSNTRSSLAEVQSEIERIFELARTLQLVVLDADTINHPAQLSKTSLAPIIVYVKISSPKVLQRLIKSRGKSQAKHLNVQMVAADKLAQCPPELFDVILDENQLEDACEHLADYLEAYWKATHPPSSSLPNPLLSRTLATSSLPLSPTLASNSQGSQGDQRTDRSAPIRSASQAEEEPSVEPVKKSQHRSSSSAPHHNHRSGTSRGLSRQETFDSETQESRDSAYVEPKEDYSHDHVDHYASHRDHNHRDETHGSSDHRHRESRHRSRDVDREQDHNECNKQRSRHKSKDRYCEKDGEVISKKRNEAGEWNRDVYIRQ
T1 sequence (P54289 25-946 partner limits assumed): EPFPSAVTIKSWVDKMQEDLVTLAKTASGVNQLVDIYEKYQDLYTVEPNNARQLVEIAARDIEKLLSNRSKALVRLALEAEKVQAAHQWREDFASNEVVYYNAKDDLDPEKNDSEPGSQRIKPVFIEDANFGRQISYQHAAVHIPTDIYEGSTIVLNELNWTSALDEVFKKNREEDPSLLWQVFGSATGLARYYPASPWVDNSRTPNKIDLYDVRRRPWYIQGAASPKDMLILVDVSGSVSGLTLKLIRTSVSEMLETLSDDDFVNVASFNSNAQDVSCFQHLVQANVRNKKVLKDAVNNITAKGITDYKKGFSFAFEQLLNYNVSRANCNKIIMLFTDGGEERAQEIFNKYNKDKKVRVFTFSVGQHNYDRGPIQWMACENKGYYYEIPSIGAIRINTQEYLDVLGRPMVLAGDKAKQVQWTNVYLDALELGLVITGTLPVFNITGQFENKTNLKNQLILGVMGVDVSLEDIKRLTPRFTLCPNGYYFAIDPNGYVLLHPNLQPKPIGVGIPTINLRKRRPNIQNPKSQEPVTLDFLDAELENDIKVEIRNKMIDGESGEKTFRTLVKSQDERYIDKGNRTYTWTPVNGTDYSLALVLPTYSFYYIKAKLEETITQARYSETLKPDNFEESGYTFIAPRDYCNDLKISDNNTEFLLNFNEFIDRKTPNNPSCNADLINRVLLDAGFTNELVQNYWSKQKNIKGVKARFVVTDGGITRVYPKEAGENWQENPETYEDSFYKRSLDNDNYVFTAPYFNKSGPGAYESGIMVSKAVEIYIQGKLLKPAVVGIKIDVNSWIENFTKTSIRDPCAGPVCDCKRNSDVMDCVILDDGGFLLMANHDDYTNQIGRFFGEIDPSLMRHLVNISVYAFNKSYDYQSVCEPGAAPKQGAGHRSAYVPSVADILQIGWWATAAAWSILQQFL
T1 sequence (P54289 947-1103 partner limits assumed): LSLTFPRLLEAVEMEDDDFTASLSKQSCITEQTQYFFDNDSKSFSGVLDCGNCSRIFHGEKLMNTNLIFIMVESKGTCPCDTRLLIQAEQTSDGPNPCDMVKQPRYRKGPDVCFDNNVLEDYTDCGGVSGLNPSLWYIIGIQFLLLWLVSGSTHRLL

For `COc1ccc(OC)c2[nH]c(CCCN(C)CCC3(OC(=O)C(C)C)CC4CCC3C=C4c3ccccc3)nc12.Cl.Cl` (stereo not drawn) [di-hydrochloric acid salt of COMPOUND], which Hygroscopicity classification [1] is on record?
The Hygroscopicity classification was “Slightly hygroscopic (mass”.

What about the Hygroscopicity mass change [1] of the same compound?
The Hygroscopicity mass change was “change 0.5%)”.

With `COc1ccc(OC)c2[nH]c(CCCN(C)CC[C@]3(OC(=O)C(C)C)C[C@H]4CC[C@@H]3C=C4c3ccccc3)nc12` [Reference Example 3A, Isobutyric acid (1R,2R,4R)-2-(2-{[3-(4,7-dimethoxy-1H-benzoimidazol-2-yl)-propyl]-methyl-amino}-ethyl)-5-phenyl-bicyclo[2.2.2]oct-5-en-2-yl ester] as the compound, how does the pIC50 (human Cav1.2 channel) read?
Its pIC50 is 6.36 to 6.81.

With `COc1ccc(OC)c2[nH]c(CCCN(C)CC[C@@]3(OC(=O)C(C)C)C[C@@H]4CC[C@H]3C=C4c3ccccc3)nc12` [Reference Example 2A, Isobutyric acid (1S,2S,4S)-2-(2-{[3-(4,7-dimethoxy-1H-benzoimidazol-2-yl)-propyl]-methyl-amino}-ethyl)-5-phenyl-bicyclo[2.2.2]oct-5-en-2-yl ester] as the compound, how does the pIC50 (human Cav1.2 channel) read?
The pIC50 was 6.36 to 6.81.

Which Hygroscopicity classification [1] does the source give for `Br.Br.COc1ccc(OC)c2[nH]c(CCCN(C)CCC3(OC(=O)C(C)C)CC4CCC3C=C4c3ccccc3)nc12` (stereo not drawn) [di-hydrobromic acid salt of COMPOUND] here?
The Hygroscopicity classification was “Non hygroscopic”.

What about the Hygroscopicity mass change [1] of the same compound?
The Hygroscopicity mass change was 0.1%.

Which Hygroscopicity classification [1] does the source give for `COc1ccc(OC)c2[nH]c(CCCN(C)CCC3(OC(=O)C(C)C)CC4CCC3C=C4c3ccccc3)nc12.O=C(O)/C=C\C(=O)O.O=C(O)/C=C\C(=O)O` (stereo not drawn) [di-maleic acid salt of COMPOUND] here?
The Hygroscopicity classification was “Non hygroscopic”.

What about the Hygroscopicity mass change [1] of the same compound?
The Hygroscopicity mass change was 0.1%.

With `COc1ccc(OC)c2[nH]c(CCCN(C)CCC3(OC(=O)C(C)C)CC4CCC3C=C4c3ccccc3)nc12.COc1ccc(OC)c2[nH]c(CCCN(C)CCC3(OC(=O)C(C)C)CC4CCC3C=C4c3ccccc3)nc12.O=C(O)/C=C/C(=O)O.O=C(O)/C=C/C(=O)O.O=C(O)/C=C/C(=O)O` (stereo not drawn) [sesqui-fumaric acid salt of COMPOUND] as the compound, how does the Hygroscopicity classification [1] read?
Its Hygroscopicity classification is “Non hygroscopic”.

What about the Hygroscopicity mass change [1] of the same compound?
Its Hygroscopicity mass change is 0.1%.

With `COc1ccc(OC)c2[nH]c(CCCN(C)CC[C@]3(OC(=O)C(C)C)C[C@H]4CC[C@@H]3C=C4c3ccccc3)nc12` (racemic) [Reference Example 1A, rac-Isobutyric acid (1R*,2R*,4R*)-2-(2-{[3-(4,7-dimethoxy-1H-benzoimidazol-2-yl)-propyl]-methyl-amino}-ethyl)-5-phenyl-bicyclo[2.2.2]oct-5-en-2-yl ester] as the compound, how does the pEC50 (isolated mouse hearts) read?
The pEC50 was 8.30.

What about the pIC50 (human Cav1.2 channel) of the same compound?
The pIC50 was 6.36 to 6.81.
